Measured values taken from US20260200942A1, “PARP7 INHIBITORS AND THEIR APPLICATIONS” (CHONGQING PHARSCIN INNOBIO CO., LTD., priority 2023, published 2026).

Key:
[1] = Liver microsomal stability study, human; format: in vitro ADME; settings: Human liver microsomes
Method: (§1) The above compounds were diluted to a 1.5 μM intermediate working solution with 0.1 M potassium phosphate buffer containing 0.75 mg/mL liver microsomes, and then 30 μL of the intermediate working solution was dispensed into reaction plates for different time points (0, 5, 15, 30, 45, 60 min). 150 μL of methanol solution containing internal standard was added to the 0 min plate wells. For the other time points (5, 15, 30, 45, 60 min), the sample plates were pre-incubated at 37° C. for 5 min, after which the reaction was initiated with 15 μL of 6 mM NADPH solution and timing was started. 15 μL of 6 mM NADPH solution was added to the 0 min samples to balance the system. At 5 min, 15 min, 30 min, 45 min, and 60 min, respectively, 150 μL of methanol solution containing internal standard was added to the reaction wells to terminate the reaction. After the reaction was complete, the plates were shaken on a shaker at 600 rpm for 10 min, then centrifuged at 4000 rpm for 15 min. 80 μL of supernatant from each well was transferred to a 96-well sample plate containing 150 μL of ultrapure water, mixed, and then analyzed by LC/MS to calculate T1/2.

[2] = Mouse pharmacokinetic study; format: in vivo; settings: BALB/c mice; for AUC(0-t) / Cmax / Tmax / half-life: female, mouse, plasma
Text: • (1) Study design: Female healthy Balb/c mice (specific pathogen-free (SPF) grade) were used as test animals, divided into 2 dose groups with 3 mice in each group, for single intravenous injection and single oral gavage administration, respectively. The vehicle formulations were […] (DMSO)+10% Solutol+85% Saline and 0.5% methylcellulose (MC), respectively. • (2) Plasma sample collection and processing: Blood was collected from the orbital venous plexus of the mice. After intravenous (IV) bolus administration, samples were collected at 0.083 h, 0.25 h, 0.5 h, 1 h, 2 h, 4 h, 8 h, and 24 h. After oral (PO) administration, samples were collected at 0.25 h, 0.5 h, 1 h, 2 h, 4 h, 6 h, 8 h, and 24 h. An appropriate volume of whole blood samples was collected with EDTA-K2 anticoagulation, placed on wet ice after collection, and plasma was separated by centrifugation within 30 min (centrifugation conditions: 4000 rpm, 10 minutes, 2-8° C.). The collected plasma samples were stored in a −70° C. freezer before analysis. After analysis, the remaining plasma samples continued to be stored in a −70° C. freezer. • (3) Analytical batch processing and pharmacokinetic parameter calculation: The concentration of the test substance in the plasma samples was determined. The accuracy of quality control samples was evaluated concurrently with the analysis of the samples, with the requirement that more than 66.7% of the quality control samples have an accuracy between 80-120%. Using the plasma concentration data at different time points, pharmacokinetic parameters such as C0 (IV), Area Under the Curve (AUC)(0-t), T1/2, Cmax, Tmax, and Mean Residence Time (MRT) were calculated using WinNonlin.

PARP7 = biological target: T1, PARP7 (Homo sapiens, UniProt Q7Z3E1); experiment: PARP7 inhibitory activity assay (histone-coated 384-well plate, chemiluminescence); format: biochemical
T1 construct: purchased BPS 80527
T1 sequence (Q7Z3E1 1-657): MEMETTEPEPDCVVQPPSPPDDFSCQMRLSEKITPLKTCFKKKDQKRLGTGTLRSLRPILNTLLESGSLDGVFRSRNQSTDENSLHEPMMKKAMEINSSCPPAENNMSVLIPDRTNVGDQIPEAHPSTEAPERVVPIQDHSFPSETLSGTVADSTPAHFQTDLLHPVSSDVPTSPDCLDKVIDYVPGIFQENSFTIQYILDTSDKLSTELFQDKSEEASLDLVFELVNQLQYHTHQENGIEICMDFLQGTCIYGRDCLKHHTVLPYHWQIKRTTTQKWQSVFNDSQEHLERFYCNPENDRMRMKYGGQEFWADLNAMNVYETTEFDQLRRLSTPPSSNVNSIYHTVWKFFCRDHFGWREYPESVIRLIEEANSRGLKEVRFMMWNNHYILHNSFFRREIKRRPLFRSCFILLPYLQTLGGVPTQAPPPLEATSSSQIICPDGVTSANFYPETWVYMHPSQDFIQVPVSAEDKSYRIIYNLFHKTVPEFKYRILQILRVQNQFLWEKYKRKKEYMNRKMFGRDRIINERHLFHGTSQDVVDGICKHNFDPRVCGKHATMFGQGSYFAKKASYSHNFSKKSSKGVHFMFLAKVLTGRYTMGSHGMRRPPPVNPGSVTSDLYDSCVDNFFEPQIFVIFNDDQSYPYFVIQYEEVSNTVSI
Text: Inhibition rate (%) calculation formula: […]

[3] = Liver microsomal stability study, mouse; format: in vitro ADME; settings: Mouse liver microsomes
Method: as §1

[4] = Liver microsomal stability study, rat; format: in vitro ADME; settings: Rat liver microsomes
Method: as §1

PARP2 = biological target: T2, PARP2 (Homo sapiens, UniProt Q9UGN5); experiment: PARP2 inhibitory activity assay (BPS PARP2 Chemiluminescent Activity Assay Kit); format: biochemical
T2 construct: purchased BPS Bioscience
T2 sequence (Q9UGN5 whole entry): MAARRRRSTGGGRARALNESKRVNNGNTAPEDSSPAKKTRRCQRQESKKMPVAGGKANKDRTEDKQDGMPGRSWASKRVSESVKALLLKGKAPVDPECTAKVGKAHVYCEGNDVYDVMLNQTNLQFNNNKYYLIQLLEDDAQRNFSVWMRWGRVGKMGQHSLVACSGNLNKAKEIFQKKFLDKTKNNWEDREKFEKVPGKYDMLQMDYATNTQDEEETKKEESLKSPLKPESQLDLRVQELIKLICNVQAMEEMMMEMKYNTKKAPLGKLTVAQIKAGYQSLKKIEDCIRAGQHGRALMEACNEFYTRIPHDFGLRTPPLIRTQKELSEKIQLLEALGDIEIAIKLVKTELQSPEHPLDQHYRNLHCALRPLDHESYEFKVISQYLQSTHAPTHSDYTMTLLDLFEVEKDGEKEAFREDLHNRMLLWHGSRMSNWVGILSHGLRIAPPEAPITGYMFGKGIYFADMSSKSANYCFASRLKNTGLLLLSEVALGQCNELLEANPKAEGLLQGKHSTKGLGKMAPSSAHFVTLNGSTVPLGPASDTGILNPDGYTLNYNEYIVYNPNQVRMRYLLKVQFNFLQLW
Text: The PARP2 enzyme activity assay method used in the present disclosure employs reagents from the PARP2 Chemiluminescent Activity Assay Kit from BPS Bioscience, USA. […] The test results are shown in Table 1. /” indicates not tested.

## O=c1[nH]nc(CN[C@H]2C[C@H](C(=O)N3CCN(c4ncc(C(F)(F)F)cn4)CC3)C2)cc1C(F)(F)F [Embodiment 12]
[1]
  half-life at 1 µM: > 1 h
[2]; PO, 10 mg/kg, 0.5% MC
  F: 59.45%
  AUC(0-t): 10700 ng·h/mL
  Cmax: 7060 ng/mL
  Tmax: 0.25 h
  half-life: 0.81 h
[2]; IV, 1 mg/kg
  AUC(0-t): 1790 ng·h/mL
  Cmax: 1200 ng/mL
  Tmax: 0.08 h
  half-life: 0.89 h
PARP7
  IC50: 10 to 100 nM
[3]
  half-life at 1 µM: > 1 h
[4]
  half-life at 1 µM: > 1 h

## CC(=O)Nc1cc(C(F)(F)F)cnc1N1CCN(C(=O)[C@H]2C[C@H](NC(C)(C)c3cc(C(F)(F)F)c(=O)[nH]n3)C2)CC1 [Embodiment 61, N-(2-(4-((1R,3R)-3-((2-(6-oxo-5-(trifluoromethyl)-1,6-dihydropyridazin-3-yl)propan-2-yl)amino)cyclobutane-1-carbonyl)piperazin-1-yl)-5-(trifluoromethyl)pyridin-3-yl)acetamide]
[1]
  half-life at 1 µM: > 1 h
PARP2
  IC50: 100 to 1000 nM
PARP7
  IC50: < 10 nM
[3]
  half-life at 1 µM: > 1 h
[4]
  half-life at 1 µM: > 1 h

## CC(=O)Nc1cc(C(F)(F)F)cnc1N1CCN(C(=O)[C@H]2C[C@H](NCc3cc(C(F)(F)F)c(=O)[nH]n3)C2)CC1 [Embodiment 63, N-(2-(4-((1R,3R)-3-(((6-oxo-5-(trifluoromethyl)-1,6-dihydropyridazin-3-yl)methyl)amino)cyclobutane-1-carbonyl)piperazin-1-yl)-5-(trifluoromethyl)pyridin-3-yl)acetamide]
[1]
  half-life at 1 µM: > 1 h
PARP2
  IC50: 100 to 1000 nM
PARP7
  IC50: < 10 nM
[3]
  half-life at 1 µM: > 1 h
[4]
  half-life at 1 µM: > 1 h
